Two compounds from patent US20060293242A1, “Transporting of taxoid derivatives through the blood brain barrier” (priority 2001, published 2006) can be followed below.

For data set [1], the system named is SK-N-SH (neuroblastome) cells. The data set can be described thus: Cytotoxicity assay (MTT), SK-N-SH cells. The data set is classed as cell-based. Conditions: Homo sapiens, MTT test, read-out: IC50 (concentration resulting in 50% inhibition of growth). As to the method:
(§1) 9 L (glioblastome), MCF-7 and MDA-MB-435 (breast cancer), and SK-N-SH (neuroblastome) cells were obtained commercially from ATCC. The cells are seeded at approximately 10^4 cells per well, 24 h before addition of the products. They are then at 60-80% confluence on the day of the experiment. The cells are maintained in culture at 37° C. in an atmosphere at 95% humidity and 5% CO2 in an OptiMem® medium.
(§2) The cells are incubated either with free Taxol or with the vectorized Taxol at increasing concentrations for 48 hours to 72 hours. At the end of the culturing period, MTT (3-(4,5-dimethylthiazole-2-yl)-2,5-diphenyltetrazolium bromide) is added to the wells and the culture plates are then incubated for 4 hours in an incubator. The resulting crystalline deposit of formazan is then dissolved by addition of 200 μl of DMF/SDS. The optical density (OD) is measured at 550 nm (reference 630 nm) using a microplate reader. […]
(§3) The sensitivity of the 9L, MCF-7, MDA-MB-435 and SK-N-SH cells to free Taxol and to the vectorized Taxol was measured by the MTT test under the experimental conditions defined above for which the relationship between the optical density and the number of viable cells is linear.
(§4) These cells are incubated with increasing concentrations of product and, after […] of incubation, cell survival is measured by the MTT test.
On the technique in general: Tetrazolium dyes change colour on reduction, which living cells bring about.

For data set [2], the system named is MDA-MB-435 (breast cancer) cells. The data set can be described thus: Cytotoxicity assay (MTT), MDA-MB-435 cells. To be noted: Homo sapiens, MTT test, read-out: IC50 (concentration resulting in 50% inhibition of growth). The data set is classed as cell-based. How it is done: as §1, §2, §3, §4
Data set [3] deals with 9 L (glioblastome) cells. The data set can be described thus: Cytotoxicity assay (MTT), 9L cells. The class given is cell-based. To be noted: for IC50: 9L cells, MTT test, read-out: IC50 (concentration resulting in 50% inhibition of growth). How it is done: as §1
The cells are incubated either with free Taxol or with the vectorized Taxol at increasing concentrations for 48 hours to 72 hours. At the end of the culturing period, MTT (3-(4,5-dimethylthiazole-2-yl)-2,5-diphenyltetrazolium bromide) is added to the wells and the culture plates are then incubated for 4 hours in an incubator. The resulting crystalline deposit of formazan is then dissolved by addition of 200 μl of DMF/SDS. The optical density (OD) is measured at 550 nm (reference 630 nm) using a microplate reader.
Graphic representation of the percentages of OD of the treated wells as a function of the concentration of products makes it possible to determine the IC50. This corresponds to the concentration of the product which inhibits 50% of growth.
as §3, §4

In data set [4] the test system is MCF-7 (breast cancer) cells. The data set can be described thus: Cytotoxicity assay (MTT), MCF-7 cells. The class given is cell-based. Conditions: Homo sapiens, MCF7, MTT test, read-out: IC50 (concentration resulting in 50% inhibition of growth). As to the method:
as §1, §2, §3, §4

Data set [5] is described as follows: physchem.
Data set [6] has as its system blood/brain barrier. The data set can be described thus: In situ brain perfusion (BBB penetration, Kin). The class given is in vivo. Conditions: mouse, in situ brain perfusion for 60 seconds in buffer, 14C-labelled Taxol, FIG. 2. How it is done:
Mice (20-25 g, Iffa-Credo, Arbresle, France) are anesthetized. After exposure of the common carotid, the right external carotid artery is ligated at the level of the bifurcation with the internal carotid and the common carotid is ligated between the heart and the site of implantation of the catheter (polyethylene catheter, ID: 0.76). This catheter, prefilled with a solution of heparin (100 units/ml), is inserted into the common carotid. The mice are perfused with the perfusion buffer (128 mM NaCl, 24 mM NaHCO3, 4.2 mM KCl, 2.4 mM NaH2PO4, 1.5 mM CaCl2, 0.9 mM MgSO4 and 9 mM D-glucose) This buffer is filtered and then a mixture containing 95% 02/5% CO2 is bubbled in order to maintain the pH close to 7.4 and to provide the brain with oxygen during the perfusion.
The mice are perfused with the buffer containing free Taxol or vectorized Taxol. In each product, the Taxol is radiolabeled with carbon 14 (specific activity: 55 mCi/mmole, Sigma, France). Just before the beginning of perfusion, the heart is stopped by sectioning the ventricles, in order to avoid reflux of the perfusate during perfusion. The right hemisphere is then perfused at a rate of 10 ml/min for 60 seconds, after which the mouse is decapitated. The amount of radioactivity in the right hemisphere is then measured and the brain penetration (Kin) is calculated. […]

Residues, ends and D or L forms follow the SMILES beside them. *: point of attachment. Paclitaxel(2'-O-succinyl) = CC(=O)O[C@H]1C(=O)[C@@]2(C)[C@H]([C@H](OC(=O)c3ccccc3)[C@]3(O)C[C@H](OC(=O)[C@H](OC(=O)CCC(=O)*)[C@@H](NC(=O)c4ccccc4)c4ccccc4)C(C)=C1C3(C)C)[C@]1(OC(C)=O)CO[C@@H]1C[C@@H]2O

On to `CC(=O)O[C@H]1C(=O)[C@@]2(C)[C@H]([C@H](OC(=O)c3ccccc3)[C@]3(O)C[C@H](OC(=O)[C@H](O)[C@@H](NC(=O)c4ccccc4)c4ccccc4)C(C)=C1C3(C)C)[C@]1(OC(C)=O)CO[C@@H]1C[C@@H]2O` [Free Taxol, paclitaxel], for which the IC50 in data set [1] amounted to 87 nM; in data set [2], 95 nM; in data set [3], 3500 nM; in data set [4], 42 nM.
As a reminder, the solubility is the dissolved amount per volume that the medium holds. In the case of `CC(=O)O[C@H]1C(=O)[C@@]2(C)[C@H]([C@H](OC(=O)c3ccccc3)[C@]3(O)C[C@H](OC(=O)[C@H](OC(=O)CCC(=O)N[C@@H](CCCNC(=N)N)C(=O)N[C@@H](CCCNC(=N)N)C(=O)N[C@@H](CC(C)C)C(=O)N[C@@H](CO)C(=O)N[C@@H](Cc4ccc(O)cc4)C(=O)N[C@@H](CO)C(=O)N[C@@H](CCCNC(=N)N)C(=O)N[C@@H](CCCNC(=N)N)C(=O)N[C@@H](CCCNC(=N)N)C(=O)N[C@@H](Cc4ccccc4)C(=O)O)[C@@H](NC(=O)c4ccccc4)c4ccccc4)C(C)=C1C3(C)C)[C@]1(OC(C)=O)CO[C@@H]1C[C@@H]2O` [Taxol-SynB3] ({Paclitaxel(2'-O-succinyl)}-RRLSYSRRRF-OH; N-terminus and C-terminus assumed), the solubility in data set [5] is above 10000 µg/mL. For the same compound, the “increase of passage into the brain (Kin) versus free Taxol” value in data set [6] is “approximately 12 fold”. For the same compound, the “times more active than the free Taxol” value in data set [3] (9 L cell line, ratio of IC50) is on record as “approximately 5 times”. Besides, the IC50 in data set [3] is 600 nM.
